Reference: patent US20060035901A1, “Methotrexate derivatives useful for treating cancer and arthritis” (Serenex, Inc., priority 2004, published 2006)

Tests used:
DHFR = molecular target: T1, DHFR (Homo sapiens, UniProt P00374); assay: DHFR enzymatic assay; assay type: biochemical; details: determined by enzymatic assay
T1 sequence (P00374 1-187): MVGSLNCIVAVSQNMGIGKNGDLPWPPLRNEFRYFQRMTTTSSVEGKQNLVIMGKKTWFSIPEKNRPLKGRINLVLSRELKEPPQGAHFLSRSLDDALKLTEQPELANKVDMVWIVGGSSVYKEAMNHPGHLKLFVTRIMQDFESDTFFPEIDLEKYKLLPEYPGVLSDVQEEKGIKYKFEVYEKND

[1] = molecular target: T2, pyruvate carboxylase (PYC) (Sus scrofa, UniProt A0A8W4F6F0); assay: Elution of PYC from ATP-Sepharose column loaded with porcine liver proteome, IC50 estimate; assay type: binding; details: estimated from percent of protein eluted from ATP-Sepharose column, read-out: Approximate IC50 for PYC
T2 construct: a porcine liver proteome was run over an ATP-Sepharose™ column; from tissue; host or cells: porcine liver
T2 sequence (A0A8W4F6F0 1-1157): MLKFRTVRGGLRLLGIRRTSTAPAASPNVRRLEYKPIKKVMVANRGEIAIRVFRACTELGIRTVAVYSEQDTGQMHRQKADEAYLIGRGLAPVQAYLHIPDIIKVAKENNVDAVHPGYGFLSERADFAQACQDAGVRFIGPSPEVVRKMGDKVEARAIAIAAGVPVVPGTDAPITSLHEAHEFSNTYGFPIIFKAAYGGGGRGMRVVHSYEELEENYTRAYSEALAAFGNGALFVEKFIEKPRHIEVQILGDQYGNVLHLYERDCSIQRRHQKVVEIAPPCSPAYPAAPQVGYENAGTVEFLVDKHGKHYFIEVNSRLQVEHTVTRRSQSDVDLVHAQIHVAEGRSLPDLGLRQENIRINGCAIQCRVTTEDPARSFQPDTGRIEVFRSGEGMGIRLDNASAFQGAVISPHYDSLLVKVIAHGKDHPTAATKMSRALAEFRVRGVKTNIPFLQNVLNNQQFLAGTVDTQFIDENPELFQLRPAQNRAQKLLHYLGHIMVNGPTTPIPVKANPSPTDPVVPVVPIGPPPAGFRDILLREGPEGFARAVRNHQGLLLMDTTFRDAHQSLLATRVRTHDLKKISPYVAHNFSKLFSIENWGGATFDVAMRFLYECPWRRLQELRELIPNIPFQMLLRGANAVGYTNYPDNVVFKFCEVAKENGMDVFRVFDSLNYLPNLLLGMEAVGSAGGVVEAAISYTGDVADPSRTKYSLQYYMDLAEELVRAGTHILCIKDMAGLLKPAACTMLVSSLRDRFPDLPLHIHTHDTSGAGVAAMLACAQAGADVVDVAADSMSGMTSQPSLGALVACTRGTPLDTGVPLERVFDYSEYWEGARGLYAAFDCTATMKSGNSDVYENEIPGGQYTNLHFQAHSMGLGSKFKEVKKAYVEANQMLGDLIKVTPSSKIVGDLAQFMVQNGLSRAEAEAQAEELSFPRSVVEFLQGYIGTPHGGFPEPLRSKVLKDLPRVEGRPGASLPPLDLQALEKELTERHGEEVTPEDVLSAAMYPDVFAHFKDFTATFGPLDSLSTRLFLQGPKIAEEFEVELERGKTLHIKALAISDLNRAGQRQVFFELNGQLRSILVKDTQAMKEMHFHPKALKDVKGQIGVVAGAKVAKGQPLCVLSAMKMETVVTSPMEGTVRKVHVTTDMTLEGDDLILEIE
Experimental: Similar experiments were carried out to compare the IC50 values for PYC, PCCA, and PCCB. In these trials, a porcine liver proteome was run over an ATP-Sepharose™ column to bind all purine-binding proteins. The ATP-Sepharose™ column was washed several times, and then eluted with the compound of Formula III at concentrations of 1 μM, 5 μM, 10 μM, 50 μM, 100 μM, and 500 μM to identify proteins that bound to this compound. (The amount of protein eluted at the higher concentration ranges plateaued, thus confirming that the entire fraction of bound protein had been eluted.) The eluted fractions were run on a 1-dimensional SDS polyacrylamide gel.
Gels were stained with a fluorescent stain such as sypro ruby (a highly sensitive fluorescent protein stain that can readily detect less than 1 fmol of total protein, i.e., less than 0.04 ng for a 40 kDa protein). The gels were imaged using a standard flat bed gel imager and the amount of protein estimated by densiometry. The percent of protein eluted from the column at each concentration was determined and IC50 values were calculated from these estimates. Where necessary, the eluted proteins were cut out of the gel, and identified using mass spectral techniques.
These steps were repeated with each of the compounds of Formulas IV-X, MTX, and the c series derivative. The values obtained were then compared to those for DHFR.

Structure (SMILES): C#CCN(Cc1cnc2nc(N)nc(N)c2n1)c1ccc(C(=O)NC(CCC(=O)O)C(=O)O)cc1C (centres unmarked) [Formula III, 2-{4-[(2,4-diamino-pteridin-6-ylmethyl)-prop-2-ynyl-amino]-3-methyl-benzoylamino}-pentanedioic acid]
- IC50 (DHFR): 0.01 µM
- IC50 [1]: 3.8 µM

Structure (SMILES): Cc1cc(C(=O)NC(CCC(=O)O)C(=O)O)ccc1N(Cc1ccoc1)Cc1cnc2nc(N)nc(N)c2n1 (centres unmarked) [Formula VII]
- IC50 (DHFR): 0.015 µM
- IC50 [1]: 3.5 µM

Structure (SMILES): C#CCN(Cc1cnc2nc(N)nc(N)c2n1)c1ccc(C(=O)NC(CCC(=O)O)C(=O)O)cc1OC (centres unmarked) [Formula VIII]
- IC50 (DHFR): 0.015 µM
- IC50 [1]: 3.75 µM

Structure (SMILES): C#CCN(Cc1cnc2nc(N)nc(N)c2n1)c1ccc(C(=O)NC(CCC(=O)O)C(=O)O)cc1OC(F)(F)F (centres unmarked) [Formula IX]
- IC50 (DHFR): 0.118 µM
- IC50 [1]: 7 µM
